Here are results for 28 compounds from US20160067208A1, “ADHESION PREVENTING AGENT” (FARNEX INCORPORATED, priority 2013, published 2016).

Format in all cases: physicochemical
The nature of series [1]: Viscosity of the compound itself (Gemini II, Malvern). The conditions noted are these: 25° C., at shear velocity of 92 1/s. On the procedure: In addition, the amphipathic compound to be used for the adhesion preventing agent of the present invention has low viscosity in itself. Specifically, the amphipathic compound to be used for the adhesion preventing agent of the present invention has a viscosity of preferably 15.0 Pa·s or less, more preferably 11.0 Pa·s or less, and further preferably 6.0 Pa·s or less as measured at 25° C. in itself. The viscosity can be measured using, for example, a viscosity and viscoelasticity measuring apparatus (Gemini II, Malvern Instruments Ltd.) at 25° C.
The viscosity of each of the compounds described in the Examples 1-7 was measured using a viscosity/viscoelasticity measuring instrument (Gemini II, Malvern) at the temperature of 25° C.

Series [2] is described as follows: SAXS analysis of compound/water system (liquid crystal formation). Particulars: compound/water system gel, 50% by mass in water-excess condition, room temperature (25° C.). The source says:
Whether or not a liquid crystal structure has a cubic lattice may be determined by a small-angle X-ray scattering (SAXS) method, for the purpose of confirming liquid crystal formation. First, an amphipathic compound/water system sample with a predetermined concentration can be filled into an X-ray capillary tube made of quartz, for example, and the capillary tube is sealed with an oxy-fuel burner, and subjected to SAXS assay.
Mono-O-(5,9,13-trimethyltetradeca-4,8,12-trienoyl)glycerol synthesized in Example 1 and pure water were introduced into a mixing device at the concentration of 50% by mass of mono-O-(5,9,13-trimethyltetradeca-4,8,12-trienoyl)glycerol (in water-excess condition), and they were mixed at room temperature (25° C.) and left for 24 hours to obtain a homogeneous mixture. Then the separated water was removed. Thus, a sample of mono-O-(5,9,13-trimethyltetradeca-4,8,12-trienoyl)glycerol/water system was obtained as a white turbid to colorless transparent gel composition in appearance (it was referred to below as the gel sample).
Subsequently, the gel sample was analyzed by small-angle x-ray scattering (SAXS). The NANO-Viewer nano-scale X-ray structure analysis equipment (Rigaku) was used for SAXS analysis, which was performed by X-ray irradiation at room temperature (25° C.), 40 kV, 50 mA, wavelength λ=0.1542 nm (Cu-Kα).
Each of the compounds synthesized in Example 32, 33, 43, 45, 49, and 50 and water were homogeneously mixed in accordance with the same procedure as in Example 9 to obtain a sample of each compound/water system being a gel in appearance. SAXS analysis of these gel samples was performed in the same manner as in Example 9. […]

Series [3] in a line: Shear viscosity of liquid crystal gels. The conditions noted are these: gel prepared by addition of water, 25° C. The protocol:
The viscosity was measured for the gels prepared by addition of water to the compounds synthesized in Examples 1, 4, and 5. Specifically, for the gel samples obtained by mixing homogeneously according to the same procedure as in Example 9, the shear viscosity was measured at a temperature of 25° C., using a viscosity and viscoelasticity measuring apparatus (Gemini II, Malvern Instruments Ltd.; cone plate φ25, cone angle 1°).
The viscosity was measured for the gels prepared by addition of water to the compounds synthesized in Examples 45 and 50, and C17 glycerin ester synthesized in Example 13. Specifically, for the gel samples obtained by mixing homogeneously according to the same procedure as in Example 9, the shear viscosity was measured at a temperature of 25° C., using a viscosity and viscoelasticity measuring apparatus (Gemini II, Malvern Instruments Ltd.; cone plate φ25, cone angle 1°).

Take `CC(C)=CCC/C(C)=C/CCC(C)=CCCC(=O)OCC(CO)(CO)CO` (racemic) [Example 3, mono-O-(5,9,13-trimethyltetradeca-4,8,12-trienoyl)pentaerythritol]: in series [1], the Viscosity is 2.5 Pa·s.
For the compound `CC(C)=CCC/C(C)=C/CC/C(C)=C/CCC(C)=CCCC(=O)OCC(O)CO` (racemic) [Example 4, mono-O-(5,9,13,17-tetramethyloctadeca-4,8,12,16-tetraenoyl)glycerol], the Viscosity in series [1] came out at 0.37 Pa·s; in series [3] (shear velocity 12 1/s), 39 Pas · sec; in series [3] (shear velocity 100.8 1/s) it was 1.4 Pas · sec. The “liquid crystal structure (SAXS peak value ratio)” value in series [2] was “reverse hexagonal liquid crystal”.
In turn, `CC(C)=CCC/C(C)=C/CC/C(C)=C/CCC(C)=CCCC(=O)OCC(CO)(CO)CO` (racemic) [Example 6, mono-O-(5,9,13,17-tetramethyloctadeca-4,8,12,16-tetraenoyl)pentaerythritol] returned a Viscosity in series [1] of 3.3 Pa·s. Moreover, the “liquid crystal structure (SAXS peak value ratio)” value in series [2] is “cubic liquid crystal that belongs to the crystallographic space group Pn3m”.
`CC(C)=CCC/C(C)=C/CCC(C)=CCOCC(O)CO` (racemic) [Example 28, mono-O-(3,7,11-trimethyldodeca-2,6,10-trienyl)glycerol]: in series [1], the Viscosity was found to be 0.20 Pa·s.
Same read-out and setting: to `CC(C)=CCC/C(C)=C/CCC(C)=CCOCC(CO)(CO)CO` (racemic) [Example 30, mono-O-(3,7,11-trimethyldodeca-2,6,10-trienyl)pentaerythritol] belongs 1.6 Pa·s; to `CC(C)=CCC/C(C)=C/CCC(C)=CCCCOCC(O)CO` (racemic) [Example 31, mono-O-(5,9,13-trimethyltetradeca-4,8,12-trienyl)glycerol], 0.23 Pa·s.
`CC(C)=CCC/C(C)=C/CCC(C)=CCCCOCC(CO)(CO)CO` (racemic) [Example 33, mono-O-(5,9,13-trimethyltetradeca-4,8,12-trienyl)pentaerythritol] returned a Viscosity in series [1] of 0.63 Pa·s. Moreover, in series [2], the “liquid crystal structure (SAXS peak value ratio)” value is given as “cubic liquid crystals that belong to the crystallographic space group Pn3m”.
With `CC(C)=CCC/C(C)=C/CC/C(C)=C/CCC(C)=CC(=O)OCC(O)CO` (racemic) [Example 41, mono-O-(3,7,11,15-tetramethylhexadeca-2,6,10,14-tetraenoyl)glycerol], the Viscosity in series [1] stood at 3.8 Pa·s.
With `CC(C)=CCC/C(C)=C/CC/C(C)=C/CCC(C)=CC(=O)OCC(CO)(CO)CO` (racemic) [Example 43, mono-O-(3,7,11,15-tetramethylhexadeca-2,6,10,14-tetraenoyl)pentaerythritol], in series [1], the Viscosity was 14 Pa·s. Also, the “liquid crystal structure (SAXS peak value ratio)” value in series [2] was “reverse hexagonal liquid crystals”.
As for `CC(C)=CCC/C(C)=C/CC/C(C)=C/CCC(C)=CCOCC(O)CO` (racemic) [Example 44, mono-O-(3,7,11,15-tetramethylhexadeca-2,6,10,14-tetraenyl)glycerol], the Viscosity in series [1] was determined as 0.26 Pa·s.
Same read-out and setting: then `CC(C)=CCC/C(C)=C/CC/C(C)=C/CCC(C)=CCOCC(CO)(CO)CO` (racemic) [Example 46, mono-O-(3,7,11,15-tetramethylhexadeca-2,6,10,14-tetraenyl)pentaerythritol], with 2.9 Pa·s; and `CC(C)=CCC/C(C)=C/CC/C(C)=C/CCC(C)=CCOC(=O)C(O)CO` (racemic) [Example 52, 3,7,11,15-tetramethylhexadeca-2,6,10,14-tetraenyl glycerate], with 0.23 Pa·s; and `CC(C)=CCC/C(C)=C/CC/C(C)=C/CCC(C)=CCCCOC(=O)C(O)CO` (racemic) [Example 53, 5,9,13,17-tetramethyloctadeca-4,8,12,16-tetraenyl glycerate], with 0.21 Pa·s.
`CC(C)=CCC/C(C)=C/CCC(C)=CCCC(=O)OCC(O)CO` (stereo not shown) [Example 1, mono-O-(5,9,13-trimethyltetradeca-4,8,12-trienoyl)glycerol]: the Viscosity was determined as 0.26 Pa·s in series [1], 461 Pas · sec in series [3] (shear velocity 12 1/s) and 37 Pas · sec in series [3] (shear velocity 100.8 1/s). For the same compound, the “liquid crystal structure (SAXS peak value ratio)” value in series [2] is on record as “cubic liquid crystal that belongs to the crystallographic space group Pn3m”.
Turning to `CC(C)=CCC/C(C)=C/CCC(C)=CCCC(=O)OCC(O)C(O)CO` (stereo not shown) [Example 2, mono-O-(5,9,13-trimethyltetradeca-4,8,12-trienoyl)erythritol], the Viscosity in series [1] came to 4.7 Pa·s.
For `CC(C)=CCC/C(C)=C/CC/C(C)=C/CCC(C)=CCCC(=O)OCC(O)COCC(O)CO` (stereo not shown) [Example 7, mono-O-(5,9,13,17-tetramethyloctadeca-4,8,12,16-tetraenoyl)diglycerol], the Viscosity in series [1] stood at 2.6 Pa·s.
Consider `CC(=CCCC(=O)OCC(O)CO)CCCC(C)CCCC(C)C` (stereo not shown) [Example 13, mono-O-(5,9,13-trimethyltetradec-4-enoyl)glycerol], for which the results for the Viscosity in series [1], in series [3] (shear velocity 10 1/s) and in series [3] (shear velocity 105 1/s) were 0.48 Pa·s, 1878 Pas · sec and 166 Pas · sec, respectively.
In turn, `CC(C)=CCC/C(C)=C/CCC(C)=CC(=O)OCC(O)CO` (stereo not shown) [Example 27, mono-O-(3,7,11-trimethyldodeca-2,6,10-trienoyl)glycerol] returned a Viscosity in series [1] of 3.0 Pa·s.
In series [1], `CC(C)=CCC/C(C)=C/CCC(C)=CCCCOCC(O)C(O)CO` (stereo not shown) [Example 32, mono-O-(5,9,13-trimethyltetradeca-4,8,12-trienyl)erythritol] had a Viscosity of 1.2 Pa·s. Further, in series [2], the “liquid crystal structure (SAXS peak value ratio)” value is “cubic liquid crystals that belong to the crystallographic space group Pn3m”.
In turn, `CC(C)=CCC/C(C)=C/CCC(C)=CCCCOCC(O)COCC(O)CO` (stereo not shown) [Example 34, mono-O-(5,9,13-trimethyltetradeca-4,8,12-trienyl)diglycerol] showed a Viscosity in series [1] of 0.37 Pa·s.
Regarding `CC(C)=CCC/C(C)=C/CCC(C)=CCCCOC(=O)C(O)CO` (stereo not shown) [Example 36, 5,9,13-trimethyltetradeca-4,8,12-trienyl glycerate], the Viscosity in series [1] is 0.16 Pa·s.
In the case of `CC(C)=CCCC(C)=CCCC(C)=CCCC(C)=CCCCOCC(O)CO` (stereo not shown) [Example 48, mono-O-(5,9,13,17-tetramethyloctadeca-4,8,12,16-tetraenyl)glycerol], in series [1], the Viscosity is given as 0.16 Pa·s.
With `CC(C)=CCC/C(C)=C/CC/C(C)=C/CCC(C)=CCCCOCC(O)C(O)CO` (stereo not shown) [Example 49, mono-O-(5,9,13,17-tetramethyloctadeca-4,8,12,16-tetraenyl)erythritol], in series [2], the “liquid crystal structure (SAXS peak value ratio)” value is “reverse hexagonal liquid crystals”.
`CC(C)=CCC/C(C)=C/CC/C(C)=C/CCC(C)=CCCCOCC(O)COCC(O)CO` (stereo not shown) [Example 51, mono-O-(5,9,13,17-tetramethyloctadeca-4,8,12,16-tetraenyl)diglycerol] returned a Viscosity in series [1] of 1.4 Pa·s.
Still for that read-out and setting: to `CC(=CC(=O)OCC(O)CO)CCCC(C)CCCC(C)C` (stereo not shown) [Example 54, mono-O-(3,7,11-trimethyldodec-2-enoyl)glycerol] belongs 0.45 Pa·s; to `CC(=CC(=O)OCC(CO)(CO)CO)CCCC(C)CCCC(C)CCCC(C)C` (stereo not shown) [Example 55, mono-O-(3,7,11,15-tetramethylhexadec-2-enoyl)pentaerythritol], 10.6 Pa·s.
As to `CC(=CCCCOCC(CO)(CO)CO)CCCC(C)CCCC(C)C` (stereo not shown) [Example 56, mono-O-(5,9,13-trimethyltetradec-4-enyl)pentaerythritol], in series [1], the Viscosity is listed as 0.98 Pa·s.
The same measure, in the same setting: to `CC(=CCCCOCC(O)CO)CCCC(C)CCCC(C)CCCC(C)C` (stereo not shown) [Example 58, mono-O-(5,9,13,17-tetramethyloctadec-4-enyl)glycerol] belongs 0.44 Pa·s.
